Results taken from article PMC11123956, “Nobiletin Stimulates Adrenal Hormones and Modulates the Circadian Clock in Mice” (Nutrients, 2024).

Columns and labels:
PDE11A4 = biological target: T1, PDE11A4 (Homo sapiens, UniProt Q9HCR9); assay: PDE enzyme  assay, PDE11A4; format: biochemical
T1 construct: purchased Eurofins Panlabs Discovery Services Taiwan, Ltd. (contract assay); host or cells: insect Sf9 cells
Description: Enzyme assays for various subtypes of PDE (Table 1 and Figure 4) were conducted by Eurofins Panlabs Discovery Services Taiwan, Ltd. (New Taipei City, Taiwan). In the assays, five or six concentrations of nobiletin over five or six orders of magnitude were examined in experiments conducted in duplicate to determine the IC50 (concentration of nobiletin exerting half-maximal inhibition of control-specific activity). IC50 values were determined by nonlinear least squares regression analysis using MathIQTM (ID Business Solutions Ltd., Woking, UK). FAM-cAMP, FAM-cGMP (0.1 μM), and 100 μM [^3H]cGMP + cGMP were used for the substrate in the human recombinant insect Sf9 cells or Bovine retinal rod outer segments depending on the PDE subtype. The spectrofluorometric quantitation of fluorescein-AMP-IMAP, fluorescein-GMP-IMAP, or [^3H] guanosine was used depending on the PDE subtype. A known […] of each PDE was used as the positive control.

Per1 mRNA = assay: Real-time RT-PCR of Per1 mRNA in peripheral tissues; format: in vivo, mice
Description: (§1) Male C57BL/6J mice (7 weeks old) were purchased from Charles River Japan (Kanagawa, Japan) and used for the serum hormone assay and RT-PCR. Male ICR mice were purchased from Tokyo Laboratory Animals Science Co., Ltd. (Tokyo, Japan), and female PERIOD2::LUCIFERASE (PER2::LUC) knock-in mice (ICR background) bred at Waseda University were used for blood glucose measurements and in vivo imaging assays, respectively. The mice were all housed under conditions of controlled temperature (23 °C ± 3 °C), humidity (50% ± 20%), and lighting (lights on from 07:00 to 19:00 at Taisho Pharmaceutical Co., Ltd. or from 08:00 to 20:00 at Waseda University). In the 24 h cycle, Zeitgeber time 0 (ZT0) was designated as the time when the lights were turned on, and ZT12 was designated as the time when the lights were turned off. All the mice were given access to food and tap water ad libitum, and nobiletin (10–100 mg/kg; purchased from FUJIFILM Wako Pure Chemical Corporation, Osaka, Japan) was administered by intraperitoneal (i.p.) injection in the vehicle (10 mL/kg body weight) containing 0.5% carboxymethyl cellulose (CMC). Rolipram (PDE4 inhibitor, FUJIFILM Wako Pure Chemical Corporation) and SR1078 (RORα/γ agonist, FUJIFILM Wako Pure Chemical Corporation) were also used for the experiment at 10 mg/kg in 0.5% CMC [12]. Mice were euthanized by rapid decapitation for whole blood samples.
Figure 3 Nobiletin stimulated adrenaline and corticosterone secretion, and induced acute clock gene expression changes. (A–C) Mice received intraperitoneal injections of control (0.5% CMC) or nobiletin (10 or 100 mg/kg) at ZT3. (A) Serum corticosterone at 1 h after treatment (n = 6 in each). $$$ p < 0.001 by Tukey’s multiple comparisons test. (B) Serum corticosterone and adrenaline at 1, 2, and 4 h after treatment (n = 4 in each). # p < 0.05 vs. control at each time point by Mann–Whitney test; ** p < 0.01 vs. control at each time point by Student’s t-test. (C) Blood glucose changes after treatment (n = 9 in each). Statistics of 2-way repeated ANOVA are indicated on the graph. […]

Per2 mRNA = assay: Real-time RT-PCR of Per2 mRNA in peripheral tissues; format: in vivo, mice; conditions: liver, an hour after treatment
Description: as §1, with “samples. […]” for “samples.”

CRF in the hypothalamus = CRF in the hypothalamus ELISA; format: in vivo, mice; conditions: an hour after injection (50 or 100 mg/kg)
Description: Serum corticosterone, adrenaline, and adreno-corticotropic hormone (ACTH) levels, and corticotropin releasing factor (CRF) in the hypothalamus, were measured using enzyme-linked immunosorbent assay (ELISA). A corticosterone ELISA kit (Cayman Chemical Company, Ann Arbor, MI, USA), an adrenaline ELISA kit (Abcam, Cambridge, UK), an ACTH ELISA kit (Phoenix Pharmaceuticals Inc., Burlingame, CA, USA), and a CRF ELISA kit (Yanaihara Institute Inc., Shizuoka, Japan) were used. Assays were conducted according to the manufacturer’s instructions. Blood samples were collected from the mice at ZT4, 5, and 7 after the administration of nobiletin at ZT3 (10 mg/kg and 100 mg/kg, in Figure 3A,B). Blood glucose levels were measured using a Glucose PILOT kit (Aventir Biotech, LLC, Carlsbad, CA, USA). The range of blood glucose that could be precisely measured with the kit was 20–600 mg/dL. Before measurement, we administered nobiletin (100 mg/kg body weight) to the mice, after 4 h fasting. Blood was collected from the tail vein of each mouse for measurement. The measurements were conducted at 0, 15, 30, 45, 60, and 90 min after reagent administration in Figure 3C. Samples were collected one hour after nobiletin treatment (50 or 100 mg/kg; Figure 3D,E), or 2 or 4 h after treatment in Figure 3F. […]

T1 sequence (Q9HCR9 whole entry): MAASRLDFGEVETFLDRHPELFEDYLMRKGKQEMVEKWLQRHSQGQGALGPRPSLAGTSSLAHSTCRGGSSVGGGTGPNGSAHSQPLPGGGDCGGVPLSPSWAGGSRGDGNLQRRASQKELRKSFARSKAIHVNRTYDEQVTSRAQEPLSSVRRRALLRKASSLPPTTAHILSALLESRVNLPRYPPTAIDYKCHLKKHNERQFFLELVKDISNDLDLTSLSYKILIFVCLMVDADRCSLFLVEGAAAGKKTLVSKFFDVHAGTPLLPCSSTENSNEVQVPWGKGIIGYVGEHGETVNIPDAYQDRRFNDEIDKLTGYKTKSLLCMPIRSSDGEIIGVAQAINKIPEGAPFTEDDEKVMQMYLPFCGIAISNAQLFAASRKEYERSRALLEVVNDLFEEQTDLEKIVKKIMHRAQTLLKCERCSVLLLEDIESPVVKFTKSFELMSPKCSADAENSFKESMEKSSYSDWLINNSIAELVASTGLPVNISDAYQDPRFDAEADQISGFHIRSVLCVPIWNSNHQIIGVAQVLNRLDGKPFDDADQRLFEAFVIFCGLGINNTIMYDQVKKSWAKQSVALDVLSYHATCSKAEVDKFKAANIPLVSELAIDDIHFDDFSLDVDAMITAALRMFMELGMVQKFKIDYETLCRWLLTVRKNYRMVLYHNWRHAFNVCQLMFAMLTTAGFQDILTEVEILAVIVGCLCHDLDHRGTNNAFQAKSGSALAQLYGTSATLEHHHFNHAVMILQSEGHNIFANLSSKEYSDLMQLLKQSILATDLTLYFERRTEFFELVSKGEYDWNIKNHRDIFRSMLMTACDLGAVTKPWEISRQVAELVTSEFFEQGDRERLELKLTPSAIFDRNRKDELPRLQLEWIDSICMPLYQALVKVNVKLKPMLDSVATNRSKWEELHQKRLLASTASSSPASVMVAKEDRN

`COc1ccc(-c2cc(=O)c3c(OC)c(OC)c(OC)c(OC)c3o2)cc1OC` [nobiletin] was tested, and the IC50 (PDE11A4) was 31 µM, the “Per1 mRNA upregulation” value (Per1 mRNA; 4 h after treatment (stomach)) was “diminished” and the “Per1 mRNA” value (Per1 mRNA; kidney, liver (1 h) and stomach (2 h) after treatment) was “upregulated”. For the same compound, the Per2 expression (Per2 mRNA) was “decreased significantly” and the “CRF in the hypothalamus” value (CRF in the hypothalamus) was “did not change significantly”.
